# Data: patent US9688683B2, “Substituted condensed pyrimidine compounds” (GRÜNENTHAL GMBH, priority 2013, dated 2017)
# Biological target: human PDE4B1 (Homo sapiens (Human), UniProt Q07343)
# Assay: cAMP HTRF assay to determine the activity of hPDE4B1
# Assay type: biochemical
# Details: inhibition of PDE4B at a test substrate concentration of 3 μM
# Protocol: A: Determination of the PDE4B IC50 Values with a cAMP HRTF® Assay to Determine the Activity of hPDE4B1
# The inhibiting effect of the compounds on the enzyme activity of human PDE4B1 is measured by the quantification of 5′-AMP, which is formed from 3′,5′-adenosine monophosphate (cAMP). Human recombinant enzyme, expressed in Sf9 cells, and the HTRF (homogeneous time-resolved fluorescence) detection method are used in the assay.
# The test compound or water (control) is mixed with the human recombinant PDE4B1 enzyme (4.8 U) in a buffer consisting of 44.4 mM tris-HCl, 5.28 mM MgCl2, 2.64 mM DTT and 0.044% Tween 20 (pH 7.8). After adding the cAMP enzyme substrate (final concentration 40 nM) the mixture is incubated for 30 minutes at room temperature. Then a fluorescence acceptor (Dye2 marked with cAMP), a fluorescence donor (anti-cAMP antibody marked with a europium cryptate) and the non-specific phosphodiesterase inhibitor IBMX (3-isobutyl-1-methylxanthine; final concentration 1 mM) are added. After 60 minutes the fluorescence transfer, which correlates with the amount of remaining cAMP, is measured with a microplate reader (Rubystar, BMG) at λex=337 nm, λem=620 nm and λem=665 nm. The enzyme activity is calculated from the quotient formed from the measured signal at 665 nm and that at 620 nm. The result is expressed as the percentage inhibition of enzyme activity of the control (without PDE4 inhibitor) (literature: N. Saldou et al., Comparison of recombinant human PDE4 isoforms: interaction with substrate and inhibitors, Cell. Signal. Vol. 10, No. 6, 427-440, 1998). The enzyme is omitted for measurement of the basal control.
# Sequence of human PDE4B1 (Q07343 whole entry): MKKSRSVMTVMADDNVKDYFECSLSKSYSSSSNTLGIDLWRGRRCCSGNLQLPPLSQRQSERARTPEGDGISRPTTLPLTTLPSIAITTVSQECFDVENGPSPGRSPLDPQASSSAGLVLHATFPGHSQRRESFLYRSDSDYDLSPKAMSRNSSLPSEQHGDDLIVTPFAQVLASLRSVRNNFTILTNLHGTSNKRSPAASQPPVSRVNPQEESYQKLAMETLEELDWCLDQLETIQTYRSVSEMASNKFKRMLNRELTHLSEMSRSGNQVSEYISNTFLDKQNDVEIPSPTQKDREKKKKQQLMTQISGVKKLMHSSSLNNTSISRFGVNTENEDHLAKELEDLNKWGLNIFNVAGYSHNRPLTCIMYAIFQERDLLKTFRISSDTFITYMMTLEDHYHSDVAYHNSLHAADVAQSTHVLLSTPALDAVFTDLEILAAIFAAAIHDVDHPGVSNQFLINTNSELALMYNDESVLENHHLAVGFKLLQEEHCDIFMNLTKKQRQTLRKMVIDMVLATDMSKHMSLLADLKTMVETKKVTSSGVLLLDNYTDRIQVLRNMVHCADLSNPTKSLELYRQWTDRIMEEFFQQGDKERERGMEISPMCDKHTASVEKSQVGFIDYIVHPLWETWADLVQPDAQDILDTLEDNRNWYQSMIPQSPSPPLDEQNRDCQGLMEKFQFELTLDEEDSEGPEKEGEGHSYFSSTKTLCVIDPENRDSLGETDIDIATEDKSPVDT
row,inhibition at 3 µM [%],SMILES
1,45,"CCc1nc(-c2ccc3occc3c2)nc2c1CCN2c1ccc(C(=O)O)cc1 [Compound 84, 4-(2-(Benzofuran-5-yl)-4-ethyl-5H-pyrrolo[2,3-d]pyrimidin-7(6H)-yl)benzoic acid]"
2,43,"CCc1nc(-c2ccc(OC)c(F)c2)nc2c1ccn2-c1cccc(OCC(=O)N(C)C)c1 [Compound 85, 2-(3-(4-Ethyl-2-(3-fluoro-4-methoxyphenyl)-7H-pyrrolo[2,3-d]pyrimidin-7-yl)phenoxy)-N,N-dimethylacetamide]"
3,47,"CCc1nc(-c2ccc(F)c(OC)c2)nc2c1CCN2c1ccc(CC(=O)O)cc1 [Compound 86, 2-(4-(4-Ethyl-2-(4-fluoro-3-methoxyphenyl)-5H-pyrrolo[2,3-d]pyrimidin-7(6H)-yl)phenyl)acetic acid]"
4,52,"CCc1nc(-c2ccc3c(c2)OCO3)nc2c1ccn2-c1cccc(OCC(=O)N(C)C)c1 [Compound 87, 2-(3-(2-(Benzo[d][1,3]dioxol-5-yl)-4-ethyl-7H-pyrrolo[2,3-d]pyrimidin-7-yl)phenoxy)-N,N-dimethylacetamide]"
5,51,"CCc1nc(-c2ccc3ncsc3c2)nc2c1ccn2-c1cccc(OCC(=O)N(C)C)c1 [Compound 88, 2-(3-(2-(Benzo[d]thiazol-6-yl)-4-ethyl-7H-pyrrolo[2,3-d]pyrimidin-7-yl)phenoxy)-N,N-dimethylacetamide]"
6,63,"CCc1nc(-c2ccc3occc3c2)nc2c1CCN2c1ccc(CC(=O)O)cc1 [Compound 89, 2-(4-(2-(Benzofuran-5-yl)-4-ethyl-5H-pyrrolo[2,3-d]pyrimidin-7(6H)-yl)phenyl)acetic acid]"
7,58,"CCc1nc(-c2ccc(OC(F)F)cc2)nc2c1CCN2c1ccc(CC(=O)O)cc1 [Compound 90, 2-(4-(2-(4-(Difluoromethoxy)phenyl)-4-ethyl-5H-pyrrolo[2,3-d]pyrimidin-7(6H)-yl)phenyl)acetic acid]"
8,52,"CCc1nc(-c2ccc(S(C)(=O)=O)cc2)nc2c1ccn2-c1cccc(OCC(=O)N(C)C)c1 [Compound 91, 2-(3-(4-Ethyl-2-(4-(methylsulfonyl)phenyl)-7H-pyrrolo[2,3-d]pyrimidin-7-yl)phenoxy)-N,N-dimethylacetamide]"
9,67,"CCc1nc(-c2ccc(OC)c(Cl)c2)nc2c1ccn2-c1cccc(OCC(=O)N(C)C)c1 [Compound 92, 2-(3-(2-(3-Chloro-4-methoxyphenyl)-4-ethyl-7H-pyrrolo[2,3-d]pyrimidin-7-yl)phenoxy)-N,N-dimethylacetamide]"
10,57,"CCc1nc(-c2ccc3ncsc3c2)nc2c1CCN2c1ccc(CC(=O)O)cc1 [Compound 93, 2-(4-(2-(Benzo[d]thiazol-6-yl)-4-ethyl-5H-pyrrolo[2,3-d]pyrimidin-7(6H)-yl)phenyl)acetic acid]"
11,54,"CCc1nc(-c2ccc(OC)cc2)nc2c1ccn2-c1cccc(OCC(=O)N(C)C)c1 [Compound 94, 2-(3-(4-Ethyl-2-(4-methoxyphenyl)-7H-pyrrolo[2,3-d]pyrimidin-7-yl)phenoxy)-N,N-dimethylacetamide]"
12,41,"CCOc1ccc(-c2nc(CC)c3ccn(-c4cccc(OCC(=O)N(C)C)c4)c3n2)cc1 [Compound 95, 2-(3-(2-(4-Ethoxyphenyl)-4-ethyl-7H-pyrrolo[2,3-d]pyrimidin-7-yl)phenoxy)-N,N-dimethylacetamide]"
13,39,"CCOc1ccc(-c2nc(CC)c3c(n2)N(c2ccc(CC(=O)O)cc2)CC3)cc1 [Compound 96, 2-(4-(2-(4-Ethoxyphenyl)-4-ethyl-5H-pyrrolo[2,3-d]pyrimidin-7(6H)-yl)phenyl)acetic acid]"
14,67,"CCc1nc(-c2cncnc2)nc2c1ccn2-c1cccc(OCC(=O)N(C)C)c1 [Compound 97, 2-(3-(4-Ethyl-2-(pyrimidin-5-yl)-7H-pyrrolo[2,3-d]pyrimidin-7-yl)phenoxy)-N,N-dimethylacetamide]"
15,43,"CCOc1cccc(-c2nc(CC)c3c(n2)N(c2ccc(C(=O)O)cc2)CC3)c1 [Compound 98, 4-(2-(3-Ethoxyphenyl)-4-ethyl-5H-pyrrolo[2,3-d]pyrimidin-7(6H)-yl)benzoic acid]"
16,54,"CCc1nc(-c2ccc(F)c(Cl)c2)nc2c1CCN2c1ccc(CC(=O)O)cc1 [Compound 99, 2-(4-(2-(3-Chloro-4-fluorophenyl)-4-ethyl-5H-pyrrolo[2,3-d]pyrimidin-7(6H)-yl)phenyl)acetic acid]"
